{
  "source": "patent US12496272B1",
  "about": "“Stable epinephrine suspension formulation for inhalation with HFO propellant” (Amphastar Pharmaceuticals, Inc., priority 2024, dated 2025)",
  "origin": "cited, not measured here",
  "data": [
    {"smiles": "FCC(F)(F)F", "note": "[HFA-134a, 1,1,1,2-tetrafluoroethane]", "values": [
      {"measurement": "Water solubility", "setting": "at 25° C.", "value": 2220, "unit": "at 25 °C ppm"},
      {"measurement": "Log P (octanol/water)", "value": 1.1}
    ]},
    {"smiles": "FC(C(F)(F)F)C(F)(F)F", "note": "[HFA-227, 1,1,1,2,3,3,3-heptafluoropropane]", "values": [
      {"measurement": "Log P (octanol/water)", "value": 2.1}
    ]},
    {"smiles": "F/C=C/C(F)(F)F", "note": "[HFO-1234ze(E), trans-1,3,3,3-tetrafluoropropene]", "values": [
      {"measurement": "Log P (octanol/water)", "value": 1.3}
    ]}
  ]
}
